The source of these data is patent US10689354B2, “Aminoazole derivative” (Teijin Pharma Limited, priority 2015, dated 2020).

One experiment concerns the target T1, human androgen receptor (Homo sapiens, UniProt P10275).
T1 construct: expressed in transfected cells; host or cells: HEK293
T1 sequence (P10275 1-920): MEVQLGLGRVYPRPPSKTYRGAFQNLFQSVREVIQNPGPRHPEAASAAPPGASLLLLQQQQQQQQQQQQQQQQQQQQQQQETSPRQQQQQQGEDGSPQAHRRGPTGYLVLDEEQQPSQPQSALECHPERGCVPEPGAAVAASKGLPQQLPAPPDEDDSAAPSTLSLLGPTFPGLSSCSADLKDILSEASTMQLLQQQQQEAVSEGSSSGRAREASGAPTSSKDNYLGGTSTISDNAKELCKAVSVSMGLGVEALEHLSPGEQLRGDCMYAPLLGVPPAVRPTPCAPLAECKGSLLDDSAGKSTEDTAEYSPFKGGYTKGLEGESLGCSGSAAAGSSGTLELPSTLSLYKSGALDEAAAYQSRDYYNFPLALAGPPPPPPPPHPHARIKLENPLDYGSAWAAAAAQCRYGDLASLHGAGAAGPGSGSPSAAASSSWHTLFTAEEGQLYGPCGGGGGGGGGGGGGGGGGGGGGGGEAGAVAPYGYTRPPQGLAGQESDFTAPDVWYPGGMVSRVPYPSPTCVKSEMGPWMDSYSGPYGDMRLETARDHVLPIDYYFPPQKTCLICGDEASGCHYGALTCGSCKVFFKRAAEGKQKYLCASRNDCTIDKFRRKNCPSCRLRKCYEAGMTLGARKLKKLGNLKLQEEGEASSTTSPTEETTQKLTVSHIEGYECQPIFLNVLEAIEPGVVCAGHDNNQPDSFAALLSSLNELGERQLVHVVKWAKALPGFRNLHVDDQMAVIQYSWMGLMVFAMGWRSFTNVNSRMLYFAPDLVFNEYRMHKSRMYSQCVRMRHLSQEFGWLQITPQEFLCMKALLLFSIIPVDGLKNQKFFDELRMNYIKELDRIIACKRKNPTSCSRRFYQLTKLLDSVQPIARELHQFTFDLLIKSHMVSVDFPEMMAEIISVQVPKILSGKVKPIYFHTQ
Nature of the experiment: Reporter assay of an androgen receptor responsive sequence (luciferase, transiently transfected HEK293 cells). As to conditions: 24 hours incubation, relative to activity of 100 nM DHT, read-out: AR transcriptive activity (pEC50) (converted). The format is cell-based. The protocol: Reporter Assay of an Androgen Receptor Responsive Sequence
To examine the agonist activity of compounds for androgen, a reporter assay using an androgen receptor responsive sequence was conducted.
Using Lipofectamine 2000 (Invitrogen), a plasmid mixture (pGL4-ARE (200 ng/well), pcDNA3-hAR (20 ng/well), pRL-TK (Promega) (150 ng/well)) was transiently transfected into HEK293 cells. The contents of the plasmid (mixture) are as follows:
pGL4-ARE is a reporter plasmid containing firefly luciferase sequence under the control of androgen receptor responsive sequence; pcDNA3-hAR is a plasmid containing full-length sequence of human androgen receptor under the constant control of CMV promoter; pRL-TK is a plasmid containing Renilla Luciferase sequence under the control of herpes simplex virus thymidine kinase and used as an internal standard for evaluations of transfection efficiency and compound toxicity.
After the incubation of Lipofectamine 2000 and the plasmid mixture in Opti-MEM for 20 minutes, the mixture was mixed with a cell suspension prepared with Opti-MEM in the similar way, and the cell suspension was plated to a 96-well plate at 20000 cells/well. The transfection was conducted by incubating the plates under the condition of 5% CO2 at 37° C. for 3 hours. Three hours after the transfection, the culture medium was removed and a compound solution prepared by DMEM supplemented with 5% FBS and treated with charcoal was added, and the mixture was incubated under the condition of 5% CO2 at 37° C. for 24 hours. After the incubation with the compound, luciferase activities were measured with a luminometer using Dual-Glo™ Luciferase Assay System (Promega). The measurement of the luciferase activities was performed in accordance with the protocol recommended by Promega. The activity of the compound was determined by comparing to the activity of 100 nM of DHT, and quantified the logarithm value (pEC50) of reciprocal value of the effective concentration of the compound which is equal to 50% of the activity value by applying a 4 parameter goodness-of-fit calculation.

For experiment [1], the target named is T2, androgen receptor (AR-LBD) (Rattus norvegicus, UniProt P15207).
T2 construct: 5 μL of 2×AR-LBD/Fluoromone AL Red Complex contained in the kit; purchased Invitrogen
T2 sequence (P15207 651-882 limits assumed): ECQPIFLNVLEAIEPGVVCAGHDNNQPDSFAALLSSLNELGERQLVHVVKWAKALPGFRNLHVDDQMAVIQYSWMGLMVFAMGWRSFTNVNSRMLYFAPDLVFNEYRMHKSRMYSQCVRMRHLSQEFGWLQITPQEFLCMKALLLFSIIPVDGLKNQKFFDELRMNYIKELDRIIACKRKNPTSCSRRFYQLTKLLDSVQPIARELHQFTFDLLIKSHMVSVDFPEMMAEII
The experiment in a line: Evaluation of androgen receptor affinity (PolarScreen Androgen Receptor Competitor Assay Kit, Red; fluorescence polarization). As to conditions: 22° C. for 5 hours, relative to binding rate of 1 μM DHT, read-out: AR affinity (pEC50) (converted). A digest of the protocol: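 Test compound and the 2× AR-LBD/Fluoromone AL Red complex were combined in duplicate wells. After reacting 5 h at 22° C, polarization was measured. pEC50 was derived by 4-parameter fitting, normalizing to binding obtained with 1 μM dihydrotestosterone.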
Background: In fluorescence polarisation assays a small probe gives low polarisation when free and higher when bound to something large.

For the molecule `Cc1sc(N(CCc2ccc(Cl)cc2)CC[C@H]2CCCC[C@@H]2O)nc1C(=O)NS(C)(=O)=O` (racemic) [Compound 146, 2-[2-(4-chlorophenyl)ethyl-[2-[trans-2-hydroxycyclohexyl]ethyl]amino]-5-methyl-N-methylsulfonyl-thiazole-4-carboxamide], the EC50 on human androgen receptor was 794 nM; in experiment [1], 50.1 nM.

Regarding `Cc1sc(N(Cc2ccc(F)cc2)[C@H]2C[C@@H]2c2ccccc2)nc1C(=O)NS(C)(=O)=O` (racemic) [Compound 149, 2-[(4-fluorophenyl)methyl-(trans-2-phenylcyclopropyl)amino]-5-methyl-N-methylsulfonyl-thiazole-4-carboxamide], the EC50 on human androgen receptor was 1000 nM; in experiment [1] it was 158 nM.

As for `Cc1sc(N(Cc2ccc(Cl)cc2)[C@H]2C[C@@H]2c2ccccc2)nc1C(=O)NS(C)(=O)=O` (racemic) [Compound 150, 2-[(4-chlorophenyl)methyl-(trans-2-phenylcyclopropyl)amino]-5-methyl-N-methylsulfonyl-thiazole-4-carboxamide], the EC50 at human androgen receptor is 631 nM; in experiment [1], 79.4 nM.

In the case of `Cc1sc(N(CC[C@@H]2CCCC[C@@H]2O)c2ccc(C#N)cc2)nc1C(=O)NS(C)(=O)=O` (racemic) [Compound 409, 2-[4-cyano-N-[2-[cis-2-hydroxycyclohexyl]ethyl]anilino]-5-methyl-N-methylsulfonyl-thiazole-4-carboxamide], the EC50 (on human androgen receptor; in experiment [1]) was 251 nM each time.

Regarding `Cc1sc(N(CC[C@@H]2CCCC[C@H]2O)c2ccc(C#N)cc2)nc1C(=O)NS(C)(=O)=O` (racemic) [Compound 410, 2-[4-cyano-N-[2-[trans-2-hydroxycyclohexyl]ethyl]anilino]-5-methyl-N-methylsulfonyl-thiazole-4-carboxamide], the EC50 at human androgen receptor is 316 nM; in experiment [1], 158 nM.

Turning to `Cc1sc(N(CC[C@H]2CC[C@@H](O)C2)c2ccc(C#N)cc2)nc1C(=O)NS(C)(=O)=O` (racemic) [Compound 436, 2-[4-cyano-N-[2-[cis-3-hydroxycyclopentyl]ethyl]anilino]-5-methyl-N-methylsulfonyl-thiazole-4-carboxamide], the EC50 at human androgen receptor was 1580 nM; in experiment [1], 501 nM.

`Cc1sc(N(C[C@@H]2CCCC[C@H](O)C2)c2ccc(C#N)cc2)nc1C(=O)NS(C)(=O)=O` (racemic) [Compound 473, 2-[4-cyano-N-[[cis-3-hydroxycycloheptyl]methyl]anilino]-5-methyl-N-methylsulfonyl-thiazole-4-carboxamide]: the EC50 was 1260 nM at human androgen receptor and 631 nM in experiment [1].

In the case of `Cc1sc(N(C[C@@H]2CCCC[C@@H](O)C2)c2ccc(C#N)cc2)nc1C(=O)NS(C)(=O)=O` (racemic) [Compound 474, 2-[4-cyano-N-[[trans-3-hydroxycycloheptyl]methyl]anilino]-5-methyl-N-methylsulfonyl-thiazole-4-carboxamide], the figures for the EC50 (on human androgen receptor; in experiment [1]) were 1000 nM and 794 nM, respectively.

Turning to `Cc1oc(N(CCc2ccc(Cl)cc2)CC[C@@H]2CCCC[C@H]2O)nc1C(=O)NS(C)(=O)=O` (racemic) [Compound 547, 2-[2-(4-chlorophenyl)ethyl-[2-[trans-2-hydroxycyclohexyl]ethyl]amino]-5-methyl-N-methylsulfonyl-oxazole-4-carboxamide], the values for the EC50 (at human androgen receptor; in experiment [1]) were 2510 nM and 316 nM, respectively.

On to `Cc1oc(N(CC[C@@H]2CCCC[C@H]2O)c2ccc(C#N)cc2)nc1C(=O)NS(C)(=O)=O` (racemic) [Compound 624, 2-[4-cyano-N-[2-[trans-2-hydroxycyclohexyl]ethyl]anilino]-5-methyl-N-methylsulfonyl-oxazole-4-carboxamide], for which the EC50 was 7940 nM at human androgen receptor and 794 nM in experiment [1].

For `CCc1oc(N(CC[C@@H]2CCCC[C@H]2O)c2ccc(C#N)cc2)nc1C(=O)NS(C)(=O)=O` (racemic) [Compound 629, 2-[4-cyano-N-[2-[trans-2-hydroxycyclohexyl]ethyl]anilino]-5-ethyl-N-methylsulfonyl-oxazole-4-carboxamide], the values for the EC50 (at human androgen receptor; in experiment [1]) were 2510 nM and 316 nM, respectively.

Regarding `Cc1sc(N(Cc2ccccc2)c2ccc(C#N)cc2)nc1C(=O)NS(C)(=O)=O` [Compound 1, 2-(N-benzyl-4-cyano-anilino)-5-methyl-N-methylsulfonyl-thiazole-4-carboxamide], the values for the EC50 (on human androgen receptor; in experiment [1]) were 79.4 nM and 63.1 nM, respectively.

As to `Cc1sc(N(Cc2csc(C(F)(F)F)n2)c2ccc(C#N)cc2)nc1C(=O)NS(C)(=O)=O` [Compound 2, 2-[4-cyano-N-[[2-(trifluoromethyl)thiazol-4-yl]methyl]anilino]-5-methyl-N-methylsulfonyl-thiazole-4-carboxamide], the EC50 (at human androgen receptor; in experiment [1]) was 100 nM each time.

`COc1cccc(CN(c2ccc(C#N)cc2)c2nc(C(=O)NS(C)(=O)=O)c(C)s2)c1` [Compound 3, 2-[4-cyano-N-[(3-methoxyphenyl)methyl]anilino]-5-methyl-N-methylsulfonyl-thiazole-4-carboxamide]: the EC50 at human androgen receptor was 126 nM; in experiment [1], 63.1 nM.

With `Cc1sc(N(Cc2cccc(OC(F)F)c2)c2ccc(C#N)cc2)nc1C(=O)NS(C)(=O)=O` [Compound 4, 2-[4-cyano-N-[[3-(difluoromethoxy)phenyl]methyl]anilino]-5-methyl-N-methylsulfonyl-thiazole-4-carboxamide], the EC50 on human androgen receptor is 63.1 nM; in experiment [1] it was 25.1 nM.

As to `Cc1sc(N(Cc2ccccc2OC(F)F)c2ccc(C#N)cc2)nc1C(=O)NS(C)(=O)=O` [Compound 5, 2-[4-cyano-N-[[2-(difluoromethoxy)phenyl]methyl]anilino]-5-methyl-N-methylsulfonyl-thiazole-4-carboxamide], the EC50 on human androgen receptor was 251 nM; in experiment [1], 100 nM.

As for `Cc1sc(N(Cc2cccc(CO)c2)c2ccc(C#N)cc2)nc1C(=O)NS(C)(=O)=O` [Compound 6, 2-[4-cyano-N-[[3-(hydroxymethyl)phenyl]methyl]anilino]-5-methyl-N-methylsulfonyl-thiazole-4-carboxamide], the values for the EC50 (at human androgen receptor; in experiment [1]) were 316 nM and 200 nM, respectively.

For `Cc1sc(N(Cc2ccc(OC(F)(F)F)cc2)c2ccc(C#N)cc2)nc1C(=O)NS(C)(=O)=O` [Compound 7, 2-[4-cyano-N-[[4-(trifluoromethoxy)phenyl]methyl]anilino]-5-methyl-N-methylsulfonyl-thiazole-4-carboxamide], the EC50 was 63.1 nM on human androgen receptor and 31.6 nM in experiment [1].

`Cc1sc(N(CCC2CCCCC2)Cc2ccc(Cl)cc2)nc1C(=O)NS(=O)(=O)C1CC1` [Compound 730, 2-[(4-chlorophenyl)methyl-(2-cyclohexylethyl)amino]-N-cyclopropylsulfonyl-5-methyl-thiazole-4-carboxamide]: on human androgen receptor, the EC50 is above 10000 nM.
